Source: patent US20050059645A1, “Methods for the treatment of male and female sexual dysfunction” (priority 2003, published 2005)

Legend:
LH [1] = assay: Plasma LH by radioimmunoassay in orchidectomized male rats; type: in vivo, rat; conditions: for plasma LH level: repeated examination
Method: (§1) Four weeks following orchidectomy, groups of rats were treated with one of the following drug doses via tail vein injection: E2-CDS 0.03, 0.3, and 3 mg/kg. Blood samples were collected by orbital sinus puncture under light ether anesthesia. The samples were stored at 4° C. for one hour and centrifuged at 1,000 g for 10 minutes. Plasma was separated and stored at −80° C. until assayed. Plasma LH concentrations from individual samples were measured by double antibody radioimmunoassay kits obtained from Amersham Pharmacia Biotech, Rome, Italy. […] The limit of detection was 15 pg/ml.
(§2) Behavioral changes were analyzed using the Mann-Whitney U test (Siegel, Nonparametric Statistics for the Behavioral Sciences, New York; McGraw-Hill Book Company, Inc., 1956). The Fisher exact test was used for percentage comparisons (Zar, Biostatistical Analysis, Prentice Hall, Inc., Englewood Cliffs, N.J., 1974). Serum LH data were analyzed for each time and treatment group by analysis of variance (ANOVA) followed by Bonferroni posthoc test.

LH [2] = conditions: cited from earlier work
[3] = female, human, in vivo, 2.5 mg
Excerpt: A brief evaluation of the results follows:
One explanation for this difference might be the difference in the dissolution (and buccal residence) time of the two formulations used in these two different studies.

testosterone [4] = conditions: 1 mg/kg i.v., cited from earlier work
postmenopausal women = assay: Phase I: safety and tolerance (adverse events); conditions: 2.86 mg buccal, both regimens
Method: (§3) Even more recently, in a Phase I clinical study of postmenopausal women, two different administration regimens of a 2.86 mg E2-CDS buccal delivery tablet were evaluated for safety and effects on hormone levels. The subjects were 12 healthy postmenopausal volunteers, divided into two groups of six. In Group A, women were dosed once daily for 10 days (10 doses); in Group B, women were dosed once every other day for 13 days (7 doses).

testosterone [5] = assay: Phase I repeated buccal dosing in postmenopausal women: serum testosterone; type: in vivo, human; conditions: for testosterone level exceeding baseline: 72 hours after last dose
Method: as §3

morphine-dependent rats = conditions: cited from earlier work
castrated male rats [6] = conditions: cited from earlier work
castrated male rats [7] = assay: Male rat copulatory behavior after orchidectomy; type: in vivo
Method: Adult male Sprague Dawley rats (300-400 g) from Charles River Hungary Ltd., Godollo, Hungary, were used. Animals were kept in community cages (4 animals/cage) in a climate-controlled room (23±2° C.), with a 14 hour light, 10 hour dark cycle of artificial lighting, using reversed light/dark cycle. […] These hormones were dissolved in sunflower oil.
After establishment of basal behaviors as discussed below, selected animals were orchidectomized via a single midventral incision and were rehoused.
After repeated testing of animals recovered from orchidectomy as discussed below, rats were divided into four groups and treated intravenously, via a single tail vein injection, with one of the following: group 1: control (27% hydroxypropyl-β-cyclodextrin); group 2: 0.03 mg/kg E2-CDS; group 3: 0.3 mg/kg E2-CDS; and group 4: 3 mg/kg E2-CDS.
Mating was observed during the dark cycle in a plexi observation cage in a room where only a dim red light was on. The male was placed in the observation cage 5 minutes prior to the female.
The following parameters were then measured: • Mount latency (ML): the time from the introduction of the female to the initial mount or intromission; • Intromission latency (IL): the time from introduction of the female to the first intromission; and • Ejaculatory latency (EL): the time from the first intromission to ejaculation.
Sessions were considered negative if IL exceeded 15 minutes.
To establish basal behavior, each male was tested every 5 days until four successive and consistent behavioral patterns were achieved. This pretesting lasted for about four weeks. Approximately half of the animals tested were deemed suitable for orchidectomy.
Twenty-eight days after healing from orchidectomy, the animals were tested again (Day 0) and divided into 4 experimental groups. Only animals displaying ejaculation latencies greater than 15 minutes were included in the study.
Tests of male sexual behavior were conducted 3, 7, 14, 21, 28, 35 and 42 days after drug administration or until the effect disappeared, i.e. until no statistically significant difference was found between groups during two consecutive tests.
Behavioral patterns and related times were recorded manually by skilled observers.
as §1, §2
The testing described above was repeated using a dose of 0.03 mg/kg administered as a single i.v. injection, and a dose of 0.01 mg/kg with daily i.v. administration for 10 days. E2-CDS stock solution (40%) was diluted in 27% HPβCD solution.
The copulatory behavior of E2-CDS treated groups was compared to that of the HPβCD control group at 1, 3, 7, 14, and 21 days after i.v. drug administration in the 0.03 mg/kg group and at 1, 3, 7, 14 and 21 days after initial i.v. drug administration in the 0.01 mg/kg×10 days group.

[8] = 3.0 mg/kg single i.v., days 14, 21 and 28

CN1C=CCC(C(=O)O[C@H]2CC[C@H]3[C@@H]4CCc5cc(O)ccc5[C@H]4CC[C@]23C)=C1 [E2-CDS, 17β-[(1-methyl-1,4-dihydro-3-pyridinyl)carbonyloxy]estra-1,3,5(10)-trien-3-ol]
plasma LH level (LH [1]; 0.01 mg/kg i.v., 10 daily injections): significantly reduced at the dose of 0.01 mg/kg (10 daily injections) from day 3 to day 14 | plasma LH level (LH [1]; 0.03 mg/kg single injection): significantly reduced on day 3 only | plasma LH levels (LH [1]; 0.3 mg/kg single i.v.): significantly reduced the LH levels on days 1, 3, and 7 | plasma LH levels (LH [1]; 3 mg/kg single i.v.): suppressed significantly throughout 28 days | LH levels (LH [2]; 3 mg/kg single i.v., 12, 18 and 24 days post-treatment): remained very significantly reduced | duration of suppression of LH (LH [2]; castrated male rats, 3 mg/kg i.v. studies): at least 24 days | Tmax of E2 [3]: 2 h | average Cmax of E2 [3]: 0.1534 ng/mL | decrease of serum testosterone levels (testosterone [4]; one day after treatment): 99% | suppression of serum testosterone (testosterone [4]; through 14 days post-treatment): more than 96% | severity of adverse events (postmenopausal women): All AEs were mild or moderate, no serious AE was observed | testosterone level exceeding baseline (testosterone [5]; Group A): 14% | testosterone level exceeding baseline (testosterone [5]; Group B): 28% | time to reach minimum testosterone level (testosterone [5]; day 1, Group A): 6.5 ± 11.7 h | mean testosterone AUC24 lower than baseline AUC24 (testosterone [5]; day 1, Group B): 23.0% | time to reach minimum testosterone level (testosterone [5]; day 1, Group B): 7.3 ± 11.3 h | naloxone-induced rise in TST (morphine-dependent rats; 1 mg/kg i.v. once weekly for three weeks, tested one week after last injection): significantly attenuated | attenuation of naloxone-induced rise in TST (morphine-dependent rats; single 1 mg/kg i.v., tested one week after injection): 25% | masculine sexual behavior (castrated male rats [6]; 3 mg/kg i.v. (Anderson '911 patent)): stimulated mounting behavior, increased intromission behavior and reduced both mount latency and intromission latency | ejaculatory behavior (castrated male rats [6]; 3 mg/kg single tail vein injection in DMSO (Anderson 1987)): ejaculatory behavior was not restored | duration of improved masculine sexual behavior (castrated male rats [6]; single i.v. dose of 3 mg/kg (Anderson '911 patent)): 28 days | effect on copulatory behavior (castrated male rats [7]; 0.03 mg/kg single i.v., first study): no statistically significant effect | sexual activity (castrated male rats [7]; 0.03 mg/kg single i.v., repeated study): improved sexual activity, but it was not statistically significant in any observations | mount frequency (castrated male rats [7]; 0.3 mg/kg single i.v.): significantly increased on day 7 | mount latency (castrated male rats [7]; 0.3 mg/kg single i.v.): sharply reduced from day 7 through day 28 | intromission performance (castrated male rats [7]; 3.0 mg/kg single i.v.): improved in a statistically significant manner from day 14 through day 28 | mount latency (castrated male rats [7]; 3.0 mg/kg single i.v.): sharply reduced from day 7 through day 28 | intromission frequency (castrated male rats [7]; [8]): statistically significant increase in intromission frequency | intromission latency (castrated male rats [7]; [8]): decrease in intromission latency | effect on re-establishment of copulatory behavior (castrated male rats [7]; 0.3 and 3.0 mg/kg single i.v.): significant at doses of 0.3 and 3.0 mg/kg through day 28
